Laboratory results from PubChem BioAssay AID330 (DTP/NCI, 2004).
Several values for one entry are separate records, joined by “and”; a condition that tells them apart may be missing. Equal values may be shown once. Toxic doses and inconclusive results are not listed.

Tested on: P388 leukemia ip, CD2F1 mice, survival T/C
Assay: NCI In Vivo Anticancer Drug Screen. Data for tumor model P388 Leukemia (intraperitoneal) in CD2F1 (CDF1) mice
Settings: endpoint: median survival time, higher = longer survival
Method in brief: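 Mice carrying the transplanted tumor received test compound or vehicle. Survival was recorded in each group, and the value is the treated-group measurement divided by that of the vehicle-treated control group.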

[1] = dose: 25.0 mg/kg/injection, schedule: Q01DX009 (ip), vehicle: saline
[2] = dose: 400.0 mg/kg/injection, schedule: Q01DX009 (ip), vehicle: saline
[3] = dose: 100.0 mg/kg/injection, schedule: Q04DX003 (ip), vehicle: saline with Tween-80
[4] = dose: 200.0 mg/kg/injection, schedule: Q04DX003 (ip), vehicle: saline with Tween-80
[5] = dose: 400.0 mg/kg/injection, schedule: Q04DX003 (ip), vehicle: saline with Tween-80
[6] = dose: 50.0 mg/kg/injection, schedule: Q04DX003 (ip), vehicle: saline with Tween-80
[7] = dose: 60.0 mg/kg/injection, schedule: Q01DX005 (ip), vehicle: saline with Tween-80
[8] = dose: 120.0 mg/kg/injection, schedule: Q01DX005 (ip), vehicle: saline with Tween-80
[9] = dose: 240.0 mg/kg/injection, schedule: Q01DX005 (ip), vehicle: saline with Tween-80
[10] = dose: 50.0 mg/kg/injection, schedule: Q01DX005 (ip), vehicle: saline with Tween-80
[11] = dose: 100.0 mg/kg/injection, schedule: Q01DX005 (ip), vehicle: saline with Tween-80
[12] = dose: 200.0 mg/kg/injection, schedule: Q01DX005 (ip), vehicle: saline with Tween-80
[13] = dose: 50.0 mg/kg/injection, schedule: Q01DX005 (ip), vehicle: Klucel (hydroxypropylcellulose) (HPC)
[14] = dose: 200.0 mg/kg/injection, schedule: Q01DX005 (ip), vehicle: Klucel (hydroxypropylcellulose) (HPC)

For `CN1C(=O)n2c(nc3ccccc32)C(N2CCOCC2)(N2CCOCC2)C1=O`, the T/C (dose: 100.0 mg/kg/injection, schedule: Q01DX001 (ip), vehicle: saline with Tween-80) was 103 % of control, the T/C (dose: 200.0 mg/kg/injection, schedule: Q01DX001 (ip), vehicle: saline with Tween-80) was 96 % of control and the T/C (dose: 400.0 mg/kg/injection, schedule: Q01DX001 (ip), vehicle: saline with Tween-80) was 89 % of control.

With `NCCc1ccc(O)c(O)c1` the T/C (dose: 1.5 mg/kg/injection, schedule: Q01DX009 (ip), vehicle: saline) was 100 % of control and 96 % of control, the T/C (dose: 15.0 mg/kg/injection, schedule: Q01DX009 (ip), vehicle: saline) was 99 % of control and 100 % of control and the T/C [1] was 108 % of control. For the same molecule, the T/C (dose: 50.0 mg/kg/injection, schedule: Q01DX009 (ip), vehicle: other) was 101 % of control, the T/C (dose: 50.0 mg/kg/injection, schedule: Q01DX009 (ip), vehicle: saline) was 107 % of control and 108 % of control and the T/C (dose: 100.0 mg/kg/injection, schedule: Q01DX009 (ip), vehicle: other) was 83 % of control. For the same molecule, the T/C (dose: 100.0 mg/kg/injection, schedule: Q01DX009 (ip), vehicle: saline) was 101 % of control and 108 % of control, the T/C (dose: 150.0 mg/kg/injection, schedule: Q01DX009 (ip), vehicle: saline) was 123 % of control and the T/C (dose: 200.0 mg/kg/injection, schedule: Q01DX009 (ip), vehicle: other) was 90 % of control. The T/C (dose: 200.0 mg/kg/injection, schedule: Q01DX009 (ip), vehicle: saline) was 112 % of control and 115 % of control, the T/C (dose: 300.0 mg/kg/injection, schedule: Q01DX009 (ip), vehicle: saline) was 92 % of control and the T/C (dose: 400.0 mg/kg/injection, schedule: Q01DX009 (ip), vehicle: other) was 83 % of control. For the same molecule, the T/C [2] was 99 % of control and 121 % of control and the T/C (dose: 600.0 mg/kg/injection, schedule: Q01DX009 (ip), vehicle: saline) was 153 % of control.

In the case of `CCC(=O)O[C@H]1CC[C@H]2[C@@H]3[C@@H](C)CC4=CC(=O)CC[C@]4(C)[C@H]3CC[C@]12C`, the T/C [3] is reported as 90 % of control, the T/C [4] is reported as 90 % of control and the T/C [5] is reported as 90 % of control.

In the case of `O=C(C(=S)c1ccccc1)N(Cc1ccccc1)Cc1ccccc1`, the T/C [3] is reported as 108 % of control, the T/C [4] is reported as 103 % of control and the T/C [5] is reported as 103 % of control.

In the case of `O=S(=O)(O)O.[NH-]CC(N)=O.[NH-]CC(N)=O.[Ni+2]`, the T/C (dose: 1.0 mg/kg/injection, schedule: Q01DX009 (ip), vehicle: saline) is reported as 95 % of control, the T/C (dose: 2.0 mg/kg/injection, schedule: Q01DX009 (ip), vehicle: saline) is reported as 90 % of control and the T/C (dose: 4.0 mg/kg/injection, schedule: Q01DX009 (ip), vehicle: saline) is reported as 95 % of control. The T/C (dose: 8.0 mg/kg/injection, schedule: Q01DX009 (ip), vehicle: saline) was 90 % of control.

`Cc1ccc2cccc([N+](=O)[O-])c2n1` was tested, and the T/C (dose: 12.5 mg/kg/injection, schedule: Q04DX003 (ip), vehicle: saline with Tween-80) was 100 % of control, the T/C (dose: 25.0 mg/kg/injection, schedule: Q04DX003 (ip), vehicle: saline with Tween-80) was 104 % of control and the T/C [6] was 95 % of control.

With `O=C1NN2CCN=C2c2ccccc21` the T/C [7] was 100 % of control, the T/C [8] was 104 % of control and the T/C [9] was 103 % of control.

With `COCCn1nc(-c2ccc(Cl)cc2)c(-c2ccc(Cl)cc2)c(C(C)=O)c1=O` the T/C [10] was 100 % of control, the T/C [11] was 100 % of control and the T/C [12] was 93 % of control.

For `CC(C)(C)C1=NC=CNC(C(F)(F)F)=C1`, the T/C (dose: 12.5 mg/kg/injection, schedule: Q01DX009 (ip), vehicle: Klucel (hydroxypropylcellulose) (HPC)) was 94 % of control, the T/C (dose: 25.0 mg/kg/injection, schedule: Q01DX009 (ip), vehicle: Klucel (hydroxypropylcellulose) (HPC)) was 100 % of control and the T/C (dose: 50.0 mg/kg/injection, schedule: Q01DX009 (ip), vehicle: Klucel (hydroxypropylcellulose) (HPC)) was 94 % of control.

With `CN(c1ncc(Cc2cnc(N(C)C3CCN(Cc4ccccc4)CC3)nc2)cn1)C1CCN(Cc2ccccc2)CC1` the T/C [10] was 93 % of control, the T/C [11] was 96 % of control and the T/C [12] was 92 % of control.

`NC1=NCN(C2OC(CO)C(O)C2O)C(=O)N1` (stereo not given) was tested, and the T/C (dose: 3.12 mg/kg/injection, schedule: Q01DX009 (ip), vehicle: saline) was 110 % of control, the T/C (dose: 3.13 mg/kg/injection, schedule: Q01DX009 (ip), vehicle: saline) was 120 % of control and the T/C (dose: 25.0 mg/kg/injection, schedule: Q01DX005 (iv), vehicle: saline) was 118 % of control. The T/C [1] was 150 % of control and 159 % of control, the T/C (dose: 50.0 mg/kg/injection, schedule: Q01DX005 (ip), vehicle: saline) was 150 % of control and the T/C (dose: 120.0 mg/kg/injection, schedule: Q01DX009 (ip), vehicle: saline) was 190 % of control. For the same molecule, the T/C (dose: 140.0 mg/kg/injection, schedule: Q01DX009 (ip), vehicle: saline) was 199 % of control and 203 % of control, the T/C (dose: 160.0 mg/kg/injection, schedule: Q01DX009 (ip), vehicle: saline) was 200 % of control and the T/C (dose: 200.0 mg/kg/injection, schedule: Q01DX005 (ip), vehicle: saline) was 184 % of control. The T/C [2] was 88 % of control and 90 % of control.

`C[P+]1(C)CCc2c1ccc1ccccc21` was tested, and the T/C (dose: 50.0 mg/kg/injection, schedule: Q01DX009 (ip), vehicle: saline with Tween-80) was 102 % of control.

For `CC(C1CC/C(=N/NC(N)=O)C1)[N+](=O)[O-]` (stereo not given), the T/C (dose: 12.5 mg/kg/injection, schedule: Q01DX009 (ip), vehicle: distilled water + Tween-80) was 100 % of control, the T/C (dose: 25.0 mg/kg/injection, schedule: Q01DX009 (ip), vehicle: distilled water + Tween-80) was 91 % of control and the T/C (dose: 50.0 mg/kg/injection, schedule: Q01DX009 (ip), vehicle: distilled water + Tween-80) was 90 % of control. For the same molecule, the T/C (dose: 100.0 mg/kg/injection, schedule: Q01DX009 (ip), vehicle: distilled water + Tween-80) was 100 % of control and the T/C (dose: 200.0 mg/kg/injection, schedule: Q01DX009 (ip), vehicle: distilled water + Tween-80) was 92 % of control.

In the case of `COc1ccc(CSC(=S)Nc2ccc(C)c(Cl)c2)cc1`, the T/C (dose: 50.0 mg/kg/injection, schedule: Q01DX009 (ip), vehicle: suspension in saline) is reported as 106 % of control, the T/C (dose: 100.0 mg/kg/injection, schedule: Q01DX009 (ip), vehicle: suspension in saline) is reported as 102 % of control and the T/C (dose: 200.0 mg/kg/injection, schedule: Q01DX009 (ip), vehicle: suspension in saline) is reported as 111 % of control.

For `COc1cccc(C(Cc2ccccc2)Nc2ccccc2)c1OC` (stereo not given), the T/C (dose: 3.0 mg/kg/injection, schedule: Q01DX005 (ip), vehicle: Klucel (hydroxypropylcellulose) (HPC)) was 94 % of control, the T/C (dose: 6.0 mg/kg/injection, schedule: Q01DX005 (ip), vehicle: Klucel (hydroxypropylcellulose) (HPC)) was 93 % of control and the T/C (dose: 12.0 mg/kg/injection, schedule: Q01DX005 (ip), vehicle: Klucel (hydroxypropylcellulose) (HPC)) was 93 % of control. The T/C [13] was 92 % of control and the T/C [14] was 88 % of control.

For `COC(=O)NP1(=O)NCc2ccccc2CN1`, the T/C [13] was 100 % of control, the T/C (dose: 100.0 mg/kg/injection, schedule: Q01DX005 (ip), vehicle: Klucel (hydroxypropylcellulose) (HPC)) was 94 % of control and the T/C [14] was 94 % of control.

`COc1ccc2nc3cc(Cl)ccc3c(NCCCCCCCCNc3c4ccc(Cl)cc4nc4ccc(OC)cc34)c2c1` was tested, and the T/C (dose: 0.62 mg/kg/injection, schedule: Q01DX009 (ip), vehicle: other) was 101 % of control, the T/C (dose: 1.25 mg/kg/injection, schedule: Q01DX009 (ip), vehicle: other) was 101 % of control and the T/C (dose: 2.5 mg/kg/injection, schedule: Q01DX009 (ip), vehicle: other) was 104 % of control. The T/C (dose: 5.0 mg/kg/injection, schedule: Q01DX009 (ip), vehicle: other) was 100 % of control, the T/C (dose: 10.0 mg/kg/injection, schedule: Q01DX009 (ip), vehicle: other) was 97 % of control and the T/C (dose: 20.0 mg/kg/injection, schedule: Q01DX009 (ip), vehicle: other) was 109 % of control.

With `O=C(Nc1ccc(F)cc1)ON=C1CCCCC1` the T/C [7] was 92 % of control, the T/C [8] was 97 % of control and the T/C [9] was 90 % of control.

For `O=c1[nH]c2cc([N+](=O)[O-])ccc2nc1/C=C(\O)c1cccc([N+](=O)[O-])c1`, the T/C (dose: 30.0 mg/kg/injection, schedule: Q01DX005 (ip), vehicle: Klucel + Tween-80) was 96 % of control, the T/C (dose: 60.0 mg/kg/injection, schedule: Q01DX005 (ip), vehicle: Klucel + Tween-80) was 88 % of control and 90 % of control and the T/C (dose: 120.0 mg/kg/injection, schedule: Q01DX005 (ip), vehicle: Klucel + Tween-80) was 87 % of control. The T/C (dose: 240.0 mg/kg/injection, schedule: Q01DX005 (ip), vehicle: Klucel + Tween-80) was 89 % of control.

`O=C(CC(O)(C(F)(F)Cl)C(F)(F)Cl)c1ccco1` was tested, and the T/C [6] was 109 % of control, the T/C [3] was 118 % of control and the T/C [4] was 100 % of control.
